Measured values as given in patent publication US7465471B2, “Palatability of aquaculture feed” (Novus International, Inc., priority 2003, dated 2008).
Where “and” joins values, the source holds several entries; their conditions need not be identical. Equal values may be shown once. Read-outs that look alike come from different tables or passages of the source.

Tests used:
mold = test: Mold growth in starter mash by CO2 formation in headspace (Examples 7, 8); conditions: for mold growth (CO2 in headspace), words: 0.2% in starter mash
Experimental: Fungal growth in basal starter mash was studied in compositions supplemented with DLM or Alimet® as the methionine source. Total microbial growth was monitored by measuring carbon dioxide (CO2) formation in sealed vessels at 28° C. over time.
The technique of using a closed system and measuring CO2 formation has been verified as an approximation of the conditions found in grain storage bins. See, e.g., Muir et al., Trans. ASAE, 28(5) 1673-1675 (1985), the contents of which are hereby incorporated by reference in their entirety.
A mash starter mash feed (formulation shown in Table 9, below) was subdivided into three groups: basal (control), 0.2% DLM, or 0.2% Alimet®. The feed studied had no commercial mold inhibitors added, and is representative of a typical broiler feed.
Initial moisture of the feed was 10.8%. After the addition of Alimet® or DLM, the moisture of the samples was adjusted by the addition of 2%, 4%, or 6% sterile distilled water to promote mold growth, achieving three moisture groups: […].
For each study, four replicate samples of each moisture group were mixed, and 600 g of the mixture was placed into 1 L containers, sealed, and placed at 28° C. in a temperature-controlled room. Draeger Detector tubes (CO2-measuring, obtained from Fisher Scientific) were used to measure the developed CO2 at different days following vessel sealing (two measurements were made per week). Draeger Short-Term Detector Tubes are glass tubes filled with inert carrier and an indicating reagent. The reagent produces a colorimetric indication in the presence of a particular gas (CO2). The concentration of gas is read directly from the discoloration on the tube's printed scale.
The specific mold species present were not identified. Statistical analysis was accomplished by using Duncan's multiple range test (SAS). Different letters on individual time points in FIGS. 9-11 indicate statistical differences of P<0.05.
The experiment described above in Example 7 was repeated with blends of 2.0 lb/ton, 1.5 lb/ton, 1.0 lb/ton or 0.5 lb/ton of 65% propionic acid and either […]. The blends were prepared according to the matrix outlined in Table 8, below. The 65% propionic acid was buffered with ammonium hydroxide to a pH of 5.5.

cats = test: No-choice acceptance of food, cats (Example 24); assay type: in vivo; conditions: Feline
Description: (§1) Acceptance of food containing […]® or DLM was studied to evaluate dietary consumption under no-choice conditions. […] The urine pH of six of the cats was also monitored. The diets described in Tables 39 and 40 above were used.

dogs = test: No-choice acceptance of food, dogs (Example 24); assay type: in vivo; conditions: Canine
Description: as §1

E. coli [1] = assay type: cell-based; conditions: for Δ log: Table 2, 4 h, initial 5.24
Experimental: Colony counts were performed according to standard operating procedures.

L. plantarum = L. plantarum colony counts in broth (Example 1); assay type: cell-based; conditions: for Δ log: Table 3, 6 h, log sample − log initial (5.04)
Experimental: The fresh overnight culture of L. plantarum in brain heart infusion broth were used to inoculate medium 5. The test tubes were incubated under reduced oxygen atmosphere for 6 hours at 37° C. Colony counts were performed.

S. enteritidis = S. enteritidis colony counts in broth (Examples 1-3, 17)
C. jejuni = C. jejuni colony counts in broth (Example 1); assay type: cell-based; conditions: for Δ log: Table 4, 6 h, initial 5.23
Experimental: C. jejuni grown on Campylobacter blood-free selective agar was used for inoculation. Preston broth was incubated under reduced oxygen atmosphere for 6 hours at 37° C. Colony counts were performed.

Lactobacillus plantarum = test: L. plantarum colony counts in broth at pH 3.5 (Example 16); assay type: cell-based; conditions: log 6 hours − log initial (5.61)
Experimental: Fresh overnight culture L. plantarum in Brain Heart Infusion broth is used to inoculate medium 5 at a log 4.1 cfu/mL at pH 3.5. The tubes are incubated under oxygen reduced atmosphere for 6 hours at 37° C. Colony counts are performed according standard procedures.

E. coli [2] = test: E. coli colony counts over time in soy broth at pH 4 or 7.3 (Example 5); assay type: cell-based; conditions: FIG. 5
Experimental: The cultures were incubated, and colony counts performed at increasing times.

`CSCCC(N)C(=O)O` (racemic) [DLM, DL-methionine] was tested, and the “mold growth (CO2 in headspace), words” value (mold; 12.8% moisture, FIG. 11) was “sharp increase in mold growth after only twenty days”, the “mold growth (CO2 in headspace), words” value (mold; 16.8% moisture, FIG. 9) was “showed mold growth within two days” and the “mold growth, overall comparison” value (mold; FIGS. 9, 10, 11, vs untreated and each other) was “more likely to develop mold”. The “Total grams consumed, supplemented food” value (cats; DLM 0.25%) was 1,842 grams, the “Total grams consumed, supplemented food” value (cats; DLM 0.3%) was 1,754 grams and the “Total grams consumed, supplemented food” value (dogs; DLM 0.1%) was 11,244 grams. The “Total grams consumed, supplemented food” value (dogs; DLM 0.15%) was 13,542 grams.

`O=CO` [formic acid] gave a Δ log (E. coli [1]; 0.108 g/L, pH 4.5) of −0.05, a Δ log (E. coli [1]; 0.108 g/L, pH 6.75) of 2.24 and a Δ log (E. coli [1]; 0.30 g/L, pH 4.5) of −0.28. For the same molecule, the Δ log (E. coli [1]; 0.30 g/L, pH 6.75) was 2.26, the Δ log (E. coli [1]; 0.83 g/L, pH 4.5) was −0.16 and the Δ log (E. coli [1]; 0.83 g/L, pH 6.75) was 2.25. The “inhibition of E. coli” value (E. coli [1]; pH 4.5) was “little or no inhibition”, the “log cfu/mL” value (E. coli [1]; pH 4.5) was 5.19 log cfu/mL and 4.96 log cfu/mL and 5.08 log cfu/mL and the “log reduction of E. coli growth” value (E. coli [1]; pH 4.5) was “approximately 0.1 log”. The “inhibition of E. coli” value (E. coli [1]; pH 6.75) was “Neither Alimet® nor formic acid inhibited E. coli”, the “log cfu/mL” value (E. coli [1]; pH 6.75) was 7.48 log cfu/mL and 7.50 log cfu/mL and 7.49 log cfu/mL and the “inhibition of L. plantarum” value (L. plantarum) was “Neither Alimet® nor formic acid inhibited L. plantarum”. For the same molecule, the Δ log (L. plantarum; 0.108 g/L, pH 4.5) was 0.71, the Δ log (L. plantarum; 0.108 g/L, pH 6.75) was 0.84 and the Δ log (L. plantarum; 0.30 g/L, pH 4.5) was 0.70. It also gave a Δ log (L. plantarum; 0.30 g/L, pH 6.75) of 1.19, a Δ log (L. plantarum; 0.83 g/L, pH 4.5) of 0.52 and a Δ log (L. plantarum; 0.83 g/L, pH 6.75) of 1.15. The “log cfu/mL” value (L. plantarum; pH 4.5) was 5.75 log cfu/mL and 5.74 log cfu/mL and 5.56 log cfu/mL, the “effect on inhibiting the growth of S. enteritidis” value (S. enteritidis; pH 4.5) was “neither had a significant effect” and the “reduction in S. enteritidis growth” value (S. enteritidis; pH 4.5) was “approximately 1.2 log cfu/mL”. For the same molecule, the “reduction of growth of S. enteritidis” value (S. enteritidis; pH 4.5) was “approximately 1.3 log cfu/mL”, the “growth inhibition of S. enteritidis” value (S. enteritidis; pH 6.75) was about 1 log cfu/mL and the “inhibition of S. enteritidis” value (S. enteritidis; pH 6.75) was “no inhibition”. The Δ log (C. jejuni; 0.108 g/L, pH 4.5) was −1.37, the Δ log (C. jejuni; 0.108 g/L, pH 6.75) was 1.04 and the Δ log (C. jejuni; 0.30 g/L, pH 4.5) was −2.60. For the same molecule, the Δ log (C. jejuni; 0.30 g/L, pH 6.75) was 1.15, the Δ log (C. jejuni; 0.83 g/L, pH 4.5) was under −3.93 and the Δ log (C. jejuni; 0.83 g/L, pH 6.75) was 1.02. The “inhibition of C. jejuni” value (C. jejuni; pH 4.5) was “comparable inhibition”, the “antibacterial activity against C. jejuni” value (C. jejuni; pH 6.75) was “No antibacterial activity” and the “log cfu/mL” value (C. jejuni; pH 6.75) was 6.27 log cfu/mL and 6.38 log cfu/mL and 6.25 log cfu/mL. For the same molecule, the Δ log (Lactobacillus plantarum; Table 23, 3 g/kg) was −2.42, the Δ log (Lactobacillus plantarum; Table 23, 5 g/kg) was −5.91 and the “decrease of colony counts of E. coli vs hydrochloric acid” value (E. coli [2]) was “better than hydrochloric acid”.
